{
  "source": "patent US20100291025A1",
  "about": "“INDAZOLE INHIBITORS OF TYROSINE KINASE” (AUSPEX PHARMACEUTICALS, INC., priority 2009, published 2010)",
  "origin": "cited, not measured here",
  "conditions": "in vivo",
  "data": [
    {"compound": "Cc1ccc(Nc2nccc(N(C)c3ccc4c(C)n(C)nc4c3)n2)cc1S(N)(=O)=O", "note": "[Pazopanib, 5-[[4-[(2,3-Dimethyl-2H-indazol-6-yl)(methyl)amino]pyrimidin-2-yl]amino]-2-methylbenzenesulfonamide]", "values": [
      {"measurement": "adverse effects associated with administration", "result": "nausea, diarrhea, anorexia, hypertension, fatigue, hair depigmentation, and vomiting"}
    ]}
  ]
}
